ChEMBL document CHEMBL1201862, “PubChem BioAssay data set” (2004)
Activity calls are given as the source filed them.

Assays:
[1] = test system: Streptococcus sp. 'group A'; assay: Streptococcus pyogenes SK(-)GAS viability under kanamycin – luminescence, BacTiterGlo, confirmation, counter-screen for streptokinase expression inhibitor project, dose response (AID 1900); assay type: functional, organism-based
Beta-galactosidase = Beta-galactosidase (Escherichia coli, UniProt Q8VNN2); assay: PubChem AID 485352; assay type: functional
Chain of Beta-galactosidase (Q8VNN2 whole entry): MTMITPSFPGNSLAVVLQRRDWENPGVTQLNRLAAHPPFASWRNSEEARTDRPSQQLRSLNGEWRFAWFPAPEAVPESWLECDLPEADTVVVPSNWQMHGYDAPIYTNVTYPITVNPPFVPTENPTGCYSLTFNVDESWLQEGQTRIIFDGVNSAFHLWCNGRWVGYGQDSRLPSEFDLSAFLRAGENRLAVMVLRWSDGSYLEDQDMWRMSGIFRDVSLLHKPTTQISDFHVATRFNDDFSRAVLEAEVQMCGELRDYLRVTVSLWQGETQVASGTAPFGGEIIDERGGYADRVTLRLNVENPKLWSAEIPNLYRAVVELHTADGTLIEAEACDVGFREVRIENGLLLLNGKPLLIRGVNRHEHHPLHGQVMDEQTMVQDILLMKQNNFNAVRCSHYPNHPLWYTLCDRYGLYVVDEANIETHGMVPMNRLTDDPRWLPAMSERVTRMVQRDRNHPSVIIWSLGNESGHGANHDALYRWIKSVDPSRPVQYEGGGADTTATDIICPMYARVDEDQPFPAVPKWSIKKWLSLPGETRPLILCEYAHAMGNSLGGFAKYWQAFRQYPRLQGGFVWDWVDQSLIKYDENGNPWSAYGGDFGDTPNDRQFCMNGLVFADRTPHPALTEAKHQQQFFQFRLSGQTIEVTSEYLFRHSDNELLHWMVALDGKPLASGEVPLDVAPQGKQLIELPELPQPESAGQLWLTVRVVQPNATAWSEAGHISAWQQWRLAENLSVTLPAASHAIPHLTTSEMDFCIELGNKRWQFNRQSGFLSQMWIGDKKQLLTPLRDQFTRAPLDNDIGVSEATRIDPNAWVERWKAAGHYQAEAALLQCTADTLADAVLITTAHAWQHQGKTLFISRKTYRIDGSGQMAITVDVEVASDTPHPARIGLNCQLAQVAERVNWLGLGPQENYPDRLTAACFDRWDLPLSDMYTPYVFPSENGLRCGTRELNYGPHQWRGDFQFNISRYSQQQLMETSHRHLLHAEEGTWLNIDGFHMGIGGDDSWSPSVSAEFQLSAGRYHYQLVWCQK

[2] = target: T1, Heat shock factor protein 1 (Mus musculus, UniProt P38532); assay: decrease of HSF1-responsive luciferase luminescence – cell-based, NIH3T3, dose retest, confirmation (AID 2382); assay type: functional;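 further: NIH3T3 fibroblasts with HSF1-driven luciferase reporter stressed by proteasome inhibitor MG132; luminescence from HSF1-driven luciferase expression after 8 hours of MG132 stress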
T1 sequence (P38532 whole entry): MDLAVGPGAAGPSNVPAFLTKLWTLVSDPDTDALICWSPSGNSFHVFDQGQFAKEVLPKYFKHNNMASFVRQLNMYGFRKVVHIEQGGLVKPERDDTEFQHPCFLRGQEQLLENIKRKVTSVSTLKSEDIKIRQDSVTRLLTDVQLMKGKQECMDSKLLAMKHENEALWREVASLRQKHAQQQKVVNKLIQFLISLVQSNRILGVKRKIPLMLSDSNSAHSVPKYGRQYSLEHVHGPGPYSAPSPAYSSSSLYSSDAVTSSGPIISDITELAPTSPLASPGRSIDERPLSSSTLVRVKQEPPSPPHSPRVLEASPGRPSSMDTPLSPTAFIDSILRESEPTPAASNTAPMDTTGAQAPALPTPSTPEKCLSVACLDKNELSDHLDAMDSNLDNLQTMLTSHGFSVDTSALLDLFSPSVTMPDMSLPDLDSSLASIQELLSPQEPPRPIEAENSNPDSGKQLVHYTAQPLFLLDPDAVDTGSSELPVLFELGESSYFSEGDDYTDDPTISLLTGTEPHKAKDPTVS

Streptokinase A = target: T2, Streptokinase A (Streptococcus pyogenes serotype M1, UniProt P10520); assay: viability-normalized secreted streptokinase activity reduction – plasminogen activation absorbance, OD405, dose response (AID 1914); assay type: functional, Streptococcus pyogenes M1 GAS;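 further: secreted streptokinase activity via plasminogen activation per viability signal from cell pellet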
T2 sequence (P10520 whole entry): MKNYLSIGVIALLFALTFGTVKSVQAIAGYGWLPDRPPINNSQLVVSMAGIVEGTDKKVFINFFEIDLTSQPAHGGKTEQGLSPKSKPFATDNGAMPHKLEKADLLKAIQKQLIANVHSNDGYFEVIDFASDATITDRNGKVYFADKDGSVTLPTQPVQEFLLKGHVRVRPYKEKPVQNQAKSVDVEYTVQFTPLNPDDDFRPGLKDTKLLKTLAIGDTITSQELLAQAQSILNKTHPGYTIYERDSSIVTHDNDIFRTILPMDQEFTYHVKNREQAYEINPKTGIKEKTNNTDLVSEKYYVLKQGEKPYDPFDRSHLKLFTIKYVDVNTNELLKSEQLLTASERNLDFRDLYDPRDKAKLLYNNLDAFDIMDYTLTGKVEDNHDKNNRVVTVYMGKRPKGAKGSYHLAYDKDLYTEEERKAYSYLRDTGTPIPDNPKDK

[3] = Trypanosoma cruzi growth suppression in host cells – NIH3T3 host cells, beta-gal luminescence, confirmation (AID 2044); assay type: functional, cell-based;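 further: intracellular parasites grown in NIH/3T3 mouse fibroblasts as host cells; luminescent beta-galactosidase reporter signal from transgenic T. cruzi replicating inside host cells; inhibitors lower the luminescence signal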
[4] = Luminescence-based dose response cell-based high throughput screening assay for cytotoxic compounds using the IEC-6 intestinal epithelial cell line. [Related pubchem assays: 1858 (Summary AID.), 1825 (Counterscreen.), 1907 (Confirmation screen.)]; assay type: functional
[5] = target: T3, Type-1 angiotensin II receptor (Homo sapiens, UniProt P30556); assay: antagonism of angiotensin II type 1 receptor – cell-based, uHTS hits, selectivity assay for APJ receptor antagonist project, dose response (AID 463214); assay type: functional;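 further: antagonist potency against angiotensin II stimulated AT1 response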
T3 sequence (P30556 whole entry): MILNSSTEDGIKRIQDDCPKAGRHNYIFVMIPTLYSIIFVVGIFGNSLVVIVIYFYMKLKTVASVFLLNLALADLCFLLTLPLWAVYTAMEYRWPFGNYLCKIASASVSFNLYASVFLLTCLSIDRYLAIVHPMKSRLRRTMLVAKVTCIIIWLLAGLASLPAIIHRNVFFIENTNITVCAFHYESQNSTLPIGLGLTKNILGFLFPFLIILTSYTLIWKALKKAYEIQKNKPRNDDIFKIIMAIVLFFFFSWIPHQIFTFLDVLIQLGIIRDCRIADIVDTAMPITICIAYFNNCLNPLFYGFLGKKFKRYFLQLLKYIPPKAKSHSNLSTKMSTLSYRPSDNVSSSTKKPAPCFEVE

[6] = NIH3T3 cell viability loss – ATP luminescence, mouse fibroblasts, counter-screen, dose response (AID 2010); assay type: functional, cell-based;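 further: cells exposed to compound for about 90 hours before reading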
Streptococcus = assay: GAS UMAA2166 growth inhibition – luminescence, BacTiterGlo, counter-screen for streptokinase expression inhibitor project, dose response (AID 1915); assay type: functional, organism-based;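 further: potency for reduction of bacterial viability or growth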
[7] = HEK-293T viability loss after treatment – luminescence, T-cell screen hits, cytotoxicity control for TCR NF-kB inhibitor project, dose response (AID 489026); assay type: functional, cell-based;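 further: cells exposed to compound about 14 hours before the viability readout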
HEK293 [8] = assay: HEK293T cell viability loss, resazurin readout – resazurin fluorescence, cytotoxicity control for NF-kB activator project, SAR follow-up (AID 493251); assay type: functional, cell-based; details: Homo sapiens
Jurkat = assay: SAR Analysis of small molecule inhibitors of both B-cell and T-cell specific antigen receptor-induced NF-kB activation in a Jurkat cell line using a luminescence assay. [Related pubchem assays (depositor defined):AID435003, AID435022, AID465, AID489029]; assay type: functional, cell-based; details: Homo sapiens
HEK293 [9] = assay: SAR Analysis of small molecule inhibitors of both B-cell and T-cell specific antigen receptor-induced NF-kB activation in a HEK-293T cell line using a luminescence assay. [Related pubchem assays (depositor defined):AID435003, AID435022, AID465, AID489019, AID489029]; assay type: functional, cell-based; details: Homo sapiens
[10] = reduction of Shn3 3'UTR-driven luciferase in osteoblasts – cell-based, Clone20 osteoblasts, firefly luciferase, cherry-picked, dose response (AID 624132); assay type: functional;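 further: firefly luciferase luminescence from reporter carrying the Shn3 3'UTR in osteoblasts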
[11] = loss of viability in HepG2 cells – cell-based, CellTiter-Glo, cherry-picked, cytotoxicity control for Shn3 inhibitor project, dose response (AID 624134); assay type: functional
[12] = non-specific 3'UTR reporter inhibition in Clone20-Shn3RL – cell-based, Renilla luciferase, cherry-picked, counter-screen for Shn3 inhibitor project, dose response (AID 624133); assay type: functional
[13] = Fluorescence-based cell-based high throughput dose response assay for inhibitors of the interaction of nucleotide-binding oligomerization domain containing 2 (NOD2) and the receptor-interacting serine-threonine kinase 2 (RIPK2).; assay type: functional; details: Homo sapiens
[14] = target: Cyclin-dependent kinase 2 (Homo sapiens, UniProt P24941); assay: inhibition of human CDK2/cyclin A – biochemical, cherry-picked samples, selectivity assay for Dyrk1A inhibitor project, dose response (AID 602127)
[15] = target: Dual specificity protein kinase CLK1 (Homo sapiens, UniProt P49759); assay: inhibition of human CLK1 activity – biochemical, cherry-picked samples, selectivity assay for Dyrk1A inhibitor project, dose response (AID 588811)
Chain of Dual specificity protein kinase CLK1 (P49759 whole entry): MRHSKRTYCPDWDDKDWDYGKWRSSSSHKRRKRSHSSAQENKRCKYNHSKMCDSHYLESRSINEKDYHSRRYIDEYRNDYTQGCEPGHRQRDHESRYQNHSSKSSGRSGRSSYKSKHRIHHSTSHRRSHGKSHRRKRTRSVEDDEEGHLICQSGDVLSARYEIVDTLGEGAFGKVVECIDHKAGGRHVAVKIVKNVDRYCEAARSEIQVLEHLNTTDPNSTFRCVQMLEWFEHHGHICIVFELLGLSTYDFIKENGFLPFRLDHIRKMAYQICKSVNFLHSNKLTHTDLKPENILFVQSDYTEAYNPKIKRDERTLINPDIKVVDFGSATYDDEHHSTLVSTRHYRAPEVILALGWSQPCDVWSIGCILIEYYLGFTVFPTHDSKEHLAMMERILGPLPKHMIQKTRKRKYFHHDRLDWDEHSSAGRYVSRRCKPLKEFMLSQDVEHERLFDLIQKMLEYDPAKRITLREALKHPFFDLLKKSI

BJ [16] = assay: BJ-TERT fibroblast viability loss – cell-based, RAS-independent, luminescence, dose response (AID 1933); assay type: functional, Homo sapiens; details: Homo sapiens, BJ
BJ [17] = assay: cells; assay type: functional, cell-based, Homo sapiens; details: Homo sapiens, BJ
BJ [18] = assay: BJ-TERT-LT-ST fibroblast viability loss – cell-based, RAS-independent, luminescence, dose response (AID 1935); assay type: functional, Homo sapiens; details: Homo sapiens, BJ;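 further: BJ fibroblasts immortalized with TERT plus LT and ST oncogenes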
[19] = DRD fibroblast viability loss – cell-based, non-viral oncogenic, luminescence, dose response (AID 1934); assay type: functional; details: Homo sapiens
[20] = target: T4, Short transient receptor potential channel 4 (Mus musculus, UniProt Q9QUQ5); assay: block of DAMGO-driven TRPC4 calcium entry – cell-based, HEK293 TRPC4/mu-opioid, Fluo-4 calcium, dose response (AID 434942); assay type: functional;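 further: potency of inhibitors blocking the TRPC4 calcium response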
T4 sequence (Q9QUQ5 whole entry): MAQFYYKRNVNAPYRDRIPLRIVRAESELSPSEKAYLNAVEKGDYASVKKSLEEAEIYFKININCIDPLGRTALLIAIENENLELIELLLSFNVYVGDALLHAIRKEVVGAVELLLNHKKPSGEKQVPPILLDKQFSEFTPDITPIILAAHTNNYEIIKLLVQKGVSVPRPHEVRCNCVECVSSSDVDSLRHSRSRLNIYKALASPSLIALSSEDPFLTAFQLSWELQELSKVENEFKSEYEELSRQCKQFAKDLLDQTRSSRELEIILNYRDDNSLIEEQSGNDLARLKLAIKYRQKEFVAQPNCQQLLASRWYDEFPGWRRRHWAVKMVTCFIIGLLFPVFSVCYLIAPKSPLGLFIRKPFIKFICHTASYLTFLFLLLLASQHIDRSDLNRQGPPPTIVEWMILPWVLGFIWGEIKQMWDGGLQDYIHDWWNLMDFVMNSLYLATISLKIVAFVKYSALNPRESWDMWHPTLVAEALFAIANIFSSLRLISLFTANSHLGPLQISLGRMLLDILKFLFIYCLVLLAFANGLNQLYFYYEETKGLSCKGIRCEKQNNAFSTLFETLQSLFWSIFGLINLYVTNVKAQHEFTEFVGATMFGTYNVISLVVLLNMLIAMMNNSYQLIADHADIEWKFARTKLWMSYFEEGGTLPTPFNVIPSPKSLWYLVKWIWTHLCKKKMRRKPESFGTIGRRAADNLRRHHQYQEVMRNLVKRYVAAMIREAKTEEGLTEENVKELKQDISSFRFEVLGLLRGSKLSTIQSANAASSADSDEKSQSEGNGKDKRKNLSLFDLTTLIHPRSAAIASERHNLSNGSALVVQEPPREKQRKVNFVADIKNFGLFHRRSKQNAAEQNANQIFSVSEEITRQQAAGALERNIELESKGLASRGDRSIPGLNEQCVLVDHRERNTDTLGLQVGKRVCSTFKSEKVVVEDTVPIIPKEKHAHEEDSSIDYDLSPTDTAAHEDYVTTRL

BJ [21] = assay: growth inhibition of engineered Ras-driven BJ cells – cell-based, alamar blue fluorescence, cherrypicked samples, dose response (AID 2631); assay type: functional; details: Homo sapiens;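 further: confirmatory dose-response assay in RAS-dependent BJ fibroblasts engineered with TERT, LT and ST, with cytotoxicity read by fluorescence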
[22] = viability loss in HeLa cells – cytotoxicity control for MgcRacGAP inhibitor project, dose response (AID 624300); assay type: functional
[23] = target: T5, Rac GTPase-activating protein 1 (Homo sapiens, UniProt Q9H0H5); assay: blockers of MgcRacGAP-driven Rac1 GTP hydrolysis – biochemical, ADP Hunter fluorescence, primary and confirmatory, confirmation (AID 624330); assay type: functional
T5 sequence (Q9H0H5 whole entry): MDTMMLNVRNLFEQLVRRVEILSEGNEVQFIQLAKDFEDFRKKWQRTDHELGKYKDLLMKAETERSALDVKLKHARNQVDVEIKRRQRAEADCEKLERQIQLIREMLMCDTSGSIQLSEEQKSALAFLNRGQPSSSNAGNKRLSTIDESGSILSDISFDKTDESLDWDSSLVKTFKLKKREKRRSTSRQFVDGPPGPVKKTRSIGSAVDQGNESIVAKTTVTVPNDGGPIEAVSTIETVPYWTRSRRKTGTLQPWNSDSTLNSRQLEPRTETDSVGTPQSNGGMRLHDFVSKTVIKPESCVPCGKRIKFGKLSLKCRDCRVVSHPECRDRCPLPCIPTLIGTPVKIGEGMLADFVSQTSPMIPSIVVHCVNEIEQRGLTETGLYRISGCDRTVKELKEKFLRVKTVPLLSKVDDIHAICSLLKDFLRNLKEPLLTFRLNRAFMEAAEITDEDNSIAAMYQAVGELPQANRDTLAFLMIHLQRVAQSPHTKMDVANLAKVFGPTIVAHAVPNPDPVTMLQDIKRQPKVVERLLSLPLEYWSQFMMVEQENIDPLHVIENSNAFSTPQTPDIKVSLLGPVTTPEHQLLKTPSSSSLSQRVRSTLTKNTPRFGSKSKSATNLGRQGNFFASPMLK

[24] = target: T6, DNA repair protein RAD52 homolog (Homo sapiens, UniProt P43351); assay type: functional, biochemical
T6 sequence (P43351 whole entry): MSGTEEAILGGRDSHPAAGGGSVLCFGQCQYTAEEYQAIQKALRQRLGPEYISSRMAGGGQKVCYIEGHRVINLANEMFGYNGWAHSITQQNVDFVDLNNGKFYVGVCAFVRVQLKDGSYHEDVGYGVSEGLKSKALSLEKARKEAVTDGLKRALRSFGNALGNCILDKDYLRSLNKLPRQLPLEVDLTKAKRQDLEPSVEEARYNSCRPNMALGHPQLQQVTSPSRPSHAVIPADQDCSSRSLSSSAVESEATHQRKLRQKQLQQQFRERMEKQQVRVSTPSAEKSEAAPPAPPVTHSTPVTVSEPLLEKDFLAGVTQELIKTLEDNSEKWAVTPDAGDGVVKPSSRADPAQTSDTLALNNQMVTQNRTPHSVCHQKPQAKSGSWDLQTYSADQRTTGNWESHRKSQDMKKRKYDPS

Paired box protein Pax-8 = Paired box protein Pax-8 (Homo sapiens, UniProt Q06710); assay: PAX8 transcriptional activity inhibition in RMG-I – RMG-I cells, luciferase, cherry-pick, dose response (AID 687027); assay type: functional, cell-based;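 further: luciferase reporter driven by Pax8 target thyroperoxidase promoter measured by SteadyGlo luminescence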
Chain of Paired box protein Pax-8 (Q06710 whole entry): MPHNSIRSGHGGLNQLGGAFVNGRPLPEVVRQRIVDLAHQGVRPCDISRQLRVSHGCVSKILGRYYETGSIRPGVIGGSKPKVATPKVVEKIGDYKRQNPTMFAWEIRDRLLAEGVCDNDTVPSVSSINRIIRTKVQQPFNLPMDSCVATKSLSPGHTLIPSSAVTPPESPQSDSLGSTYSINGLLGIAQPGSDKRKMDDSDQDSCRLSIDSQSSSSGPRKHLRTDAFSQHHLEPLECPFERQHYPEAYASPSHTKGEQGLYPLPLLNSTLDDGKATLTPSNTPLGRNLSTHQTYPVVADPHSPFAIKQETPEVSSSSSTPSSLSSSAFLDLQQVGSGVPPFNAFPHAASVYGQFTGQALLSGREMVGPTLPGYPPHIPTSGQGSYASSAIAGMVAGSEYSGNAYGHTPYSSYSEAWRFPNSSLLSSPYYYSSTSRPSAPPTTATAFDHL

[25] = general cell-killing toxicity readout – plate reader, dry powder samples, cytotoxicity control for PAX8 inhibitor project, dose response (AID 743021); assay type: functional, cell-based

COc1cc(NS(=O)(=O)c2ccc(C)cc2)c2ncccc2c1
EC50 [1]: 2.6 µM (active) | EC50 (Beta-galactosidase): > 40 µM (inactive) | EC50 [2]: 24.3 µM (active) | EC50 (Streptokinase A): > 150 µM (not active) | EC50 [3]: 0.524 µM (active) | IC50 [4]: 1.58 µM (active) | IC50 [5]: 3.88 µM (active) | EC50 [6]: 1.45 µM (active) | EC50 (Streptococcus): 21.7 µM (active) | IC50 [7]: > 80 µM (inactive) | IC50 (HEK293 [8]): > 80 µM (inactive) | IC50 (Jurkat): 1.52 µM (active) | IC50 (HEK293 [9]): > 79 µM (inactive) | AC50 [10]: 3.35 µM (active) | AC50 [11]: 9.77 µM (active) | AC50 [12]: 13.8 µM (active) | IC50 [13]: 5.53 µM (active)

Cc1c(-c2ccnc(NCc3cccnc3)n2)sc(=O)n1C
AC50 [14]: 15.1 µM (active) | AC50 [15]: 0.116 µM (active)

Cc1cc(C)c2nc(C)cc(N/N=C/c3ccc(O)cc3)c2c1
EC50 (BJ [16]): 2.56 µM (inconclusive) | EC50 (BJ [17]): 5.87 µM (active) | EC50 (BJ [18]): 2.78 µM (inconclusive) | EC50 [19]: 5.11 µM (inconclusive) | EC50 [20]: 5.96 µM (active) | IC50 [7]: 18.1 µM (active) | EC50 (BJ [21]): 0.555 µM (active) | CC50 [22]: 13.3 µM (active) | IC50 [23]: 18.2 µM (active) | AC50 [24]: 0.939 µM (active) | AC50 (Paired box protein Pax-8): 9.08 µM (active) | AC50 [25]: 50.5 µM (active)
